Tested on: 922993-354-T-J3-PDC complex spheroid viability
Experiment: Anticancer human tumor 922993-354-T-J3-PDC patient-derived endometrial carcinoma cell line growth inhibition [POLQ]
Conditions: for IC50: curve of first compound; for viability, T/C: stronger effect = lower value
Method in brief: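 Complex spheroid viability model combining PDC tumour cells with endothelial (HUVEC) and MSC stromal cells. Novobiocin, ART-558 or RP6685 were tested singly and in combination with standard and investigational anticancer drugs. Each was titrated in half-log steps from near clinical Cmax, or from 10 microM where Cmax was unknown.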

[1] = second compound 0.0316 µM, first compound 0.0316 µM
[2] = second compound 0.0316 µM, first compound 0.1 µM
[3] = second compound 0.0316 µM, first compound 0.316 µM
[4] = second compound 0.0316 µM, first compound 1 µM
[5] = second compound 0.0316 µM, first compound 3.16 µM
[6] = second compound 0.0316 µM, first compound 10 µM
[7] = second compound 0.1 µM, first compound 0.0316 µM
[8] = second compound 0.1 µM, first compound 0.1 µM
[9] = second compound 0.1 µM, first compound 0.316 µM
[10] = second compound 0.1 µM, first compound 1 µM
[11] = second compound 0.1 µM, first compound 3.16 µM
[12] = second compound 0.1 µM, first compound 10 µM
[13] = second compound 0.316 µM, first compound 0.0316 µM
[14] = second compound 0.316 µM, first compound 0.1 µM
[15] = second compound 0.316 µM, first compound 0.316 µM
[16] = second compound 0.316 µM, first compound 1 µM
[17] = second compound 0.316 µM, first compound 3.16 µM
[18] = second compound 0.316 µM, first compound 10 µM
[19] = second compound 1 µM, first compound 0.0316 µM
[20] = second compound 1 µM, first compound 0.1 µM
[21] = second compound 1 µM, first compound 0.316 µM
[22] = second compound 1 µM, first compound 1 µM
[23] = second compound 1 µM, first compound 3.16 µM
[24] = second compound 1 µM, first compound 10 µM
[25] = second compound 3.16 µM, first compound 0.0316 µM
[26] = second compound 3.16 µM, first compound 0.1 µM
[27] = second compound 3.16 µM, first compound 0.316 µM
[28] = second compound 3.16 µM, first compound 1 µM
[29] = second compound 3.16 µM, first compound 3.16 µM
[30] = second compound 3.16 µM, first compound 10 µM
[31] = second compound 10 µM, first compound 0.0316 µM
[32] = second compound 10 µM, first compound 0.1 µM
[33] = second compound 10 µM, first compound 0.316 µM
[34] = second compound 10 µM, first compound 1 µM
[35] = second compound 10 µM, first compound 3.16 µM
[36] = second compound 10 µM, first compound 10 µM
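Further: spheroids exposed to the agents for one week.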
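Wherever viability, T/C is given: 100% = DMSO vehicle control wells.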

## CCCS(=O)(=O)Nc1ccc(F)c(C(=O)c2c[nH]c3ncc(-c4ccc(Cl)cc4)cc23)c1F + Nc1ccc(C#CCN(C(=O)Cc2ncc(C(F)(F)F)cc2C(F)(F)F)c2ccc(F)cc2)nn1
Second compound 0.0316 µM
  IC50: > 10 µM
Second compound 0.1 µM
  IC50: > 10 µM
Second compound 0.316 µM
  IC50: > 10 µM
Second compound 1 µM
  IC50: > 10 µM
Second compound 3.16 µM
  IC50: > 10 µM
Second compound 10 µM
  IC50: > 10 µM
[1]
  viability, T/C: 99.3%
[2]
  viability, T/C: 107%
[3]
  viability, T/C: 105%
[4]
  viability, T/C: 107%
[5]
  viability, T/C: 104%
[6]
  viability, T/C: 98.9%
[7]
  viability, T/C: 103%
[8]
  viability, T/C: 108%
[9]
  viability, T/C: 101%
[10]
  viability, T/C: 107%
[11]
  viability, T/C: 107%
[12]
  viability, T/C: 104%
[13]
  viability, T/C: 109%
[14]
  viability, T/C: 106%
[15]
  viability, T/C: 105%
[16]
  viability, T/C: 107%
[17]
  viability, T/C: 107%
[18]
  viability, T/C: 93.7%
[19]
  viability, T/C: 106%
[20]
  viability, T/C: 104%
[21]
  viability, T/C: 105%
[22]
  viability, T/C: 107%
[23]
  viability, T/C: 102%
[24]
  viability, T/C: 98.5%
[25]
  viability, T/C: 102%
[26]
  viability, T/C: 103%
[27]
  viability, T/C: 99.1%
[28]
  viability, T/C: 101%
[29]
  viability, T/C: 104%
[30]
  viability, T/C: 92.4%
[31]
  viability, T/C: 97.7%
[32]
  viability, T/C: 100%
[33]
  viability, T/C: 103%
[34]
  viability, T/C: 98.7%
[35]
  viability, T/C: 100%
[36]
  viability, T/C: 94.8%

## CC(C)n1c(=O)n(C)c2cnc3cc(F)c(-c4ccc(OCCCN5CCCCC5)nc4)cc3c21 + COC1C(OC(N)=O)C(O)C(Oc2ccc3c(O)c(NC(=O)c4ccc(O)c(CC=C(C)C)c4)c(=O)oc3c2C)OC1(C)C
Second compound 0.0316 µM
  IC50: > 10 µM
Second compound 0.1 µM
  IC50: > 10 µM
Second compound 0.316 µM
  IC50: > 10 µM
Second compound 1 µM
  IC50: > 10 µM
Second compound 3.16 µM
  IC50: > 10 µM
Second compound 10 µM
  IC50: > 10 µM
[1]
  viability, T/C: 111%
[2]
  viability, T/C: 90.8%
[3]
  viability, T/C: 104%
[4]
  viability, T/C: 94.8%
[5]
  viability, T/C: 84.2%
[6]
  viability, T/C: 59%
[7]
  viability, T/C: 103%
[8]
  viability, T/C: 97.2%
[9]
  viability, T/C: 104%
[10]
  viability, T/C: 91.9%
[11]
  viability, T/C: 83.3%
[12]
  viability, T/C: 63.7%
[13]
  viability, T/C: 99.2%
[14]
  viability, T/C: 104%
[15]
  viability, T/C: 94.1%
[16]
  viability, T/C: 93.5%
[17]
  viability, T/C: 84.3%
[18]
  viability, T/C: 66.5%
[19]
  viability, T/C: 88.9%
[20]
  viability, T/C: 98.3%
[21]
  viability, T/C: 100%
[22]
  viability, T/C: 91.9%
[23]
  viability, T/C: 86.9%
[24]
  viability, T/C: 70.3%
[25]
  viability, T/C: 95.9%
[26]
  viability, T/C: 104%
[27]
  viability, T/C: 85.5%
[28]
  viability, T/C: 86.2%
[29]
  viability, T/C: 85.1%
[30]
  viability, T/C: 56.7%
[31]
  viability, T/C: 81%
[32]
  viability, T/C: 77.1%
[33]
  viability, T/C: 89.6%
[34]
  viability, T/C: 74.1%
[35]
  viability, T/C: 70.2%
[36]
  viability, T/C: 63%
